The subject of this series is chronic lymphocytic leukemia (CLL) samples classified by expression subtype (Ec-i, EC-m1, EC-m2, EC-m3, EC-m4, EC-o, EC-u1, EC-u2). As to the kind of experiment: Ex-vivo drug sensitivity (percent viability) of CLL samples compared between expression subtypes (ECs). On Mean viability in the EC: test concentration or dose not given here. On Mean viability in the other ECs: test concentration or dose not given here. The class given is cell-based. The source says:
An analysis was completed to determine whether the expression clusters (ECs) can be used to predict the resistance and sensitivity of different chronic lymphocytic leukemias to various drugs. […] The expression subtypes were then used with the drug sensitivity data to compare the percent […] of samples in each expression cluster to the percent viability of samples in all other expression clusters.

The values below come from patent publication US20230287510A1, “COMPOSITIONS, PANELS, AND METHODS FOR CHARACTERIZING CHRONIC LYMPHOCYTIC LEUKEMIA” (The Broad Institute, Inc., priority 2020, published 2023).

*1 amine or outer side, *2 acyl side, *3 side chain or, on linkers, in order; H or OH if unused. Where a SMILES comes first, the peptide text is derived from it. Bridges are numbered along the chain shown (N, C = ends). Roman numbers before positions name the chains, in order. [ ]: non-standard residue; d: D form. Actinocin(9to1) = Cc1c2oc3c(C)ccc(C(=O)[*:1])c3nc-2c(C(=O)[*:2])c(N)c1=O; NMeV = CN[C@H](C(=O)O)C(C)C; Sar = CNCC(=O)O

Consider `C/C1=C\[C@@H](C)C/C=C/[C@H]2[C@@H]3O[C@]3(C)[C@@H](C)[C@H]3[C@H](Cc4c[nH]c5ccccc45)NC(=O)[C@]32C(=O)/C=C/C(=O)[C@@H]1O` [chaetoglobosin A], for which the “Mean viability in the other ECs” value (all ECs other than EC-m3) is listed as 1.07. Further, under “expression cluster EC-m3”, the “Drug response associated with the EC” value is on record as “Sensitive” and the “Mean viability in the EC” value is recorded as 0.98.

In the case of fludarabine, for the setting “all ECs other than EC-m3”, the “Mean viability in the other ECs” value came out at 0.93. Under “expression cluster EC-m3”, the “Drug response associated with the EC” value is “Sensitive” and the “Mean viability in the EC” value stood at 0.82.

For `CC(C)(C)c1cnc(CSc2cnc(NC(=O)C3CCNCC3)s2)o1` [SNS-032], the “Mean viability in the other ECs” value (all ECs other than EC-m4) amounted to 0.73. For the setting “expression cluster EC-m4”, the “Drug response associated with the EC” value was “Sensitive” and the “Mean viability in the EC” value was 0.66.

On to `C=CCn1c(=O)c2cnc(Nc3ccc(N4CCN(C)CC4)cc3)nc2n1-c1cccc(C(C)(C)O)n1` [MK-1775], for which the “Mean viability in the other ECs” value was found to be 1.00 (all ECs other than EC-m3) and 1.02 (all ECs other than EC-u1). For the same compound, the “Drug response associated with the EC” value is given as “Resistant” (expression cluster EC-m3) and “Sensitive” (expression cluster EC-u1). Besides, the “Mean viability in the EC” value (expression cluster EC-m3) worked out at 1.04 and the “Mean viability in the EC” value (expression cluster EC-u1) was found to be 0.98.

Consider `COCCn1c2c([n+](Cc3cnccn3)c1C)C(=O)c1ccccc1C2=O` [YM155], for which, for the setting “all ECs other than EC-u1”, the “Mean viability in the other ECs” value is recorded as 0.64. Further, under “expression cluster EC-u1”, the “Drug response associated with the EC” value is listed as “Sensitive” and the “Mean viability in the EC” value came to 0.53.

`C[C@H](Nc1ncnc2[nH]cnc12)c1cc2cccc(Cl)c2c(=O)n1-c1ccccc1` [duvelisib]: the “Mean viability in the other ECs” value is 0.88 (all ECs other than EC-m3), 0.87 (all ECs other than EC-m4), 0.90 (all ECs other than EC-u1) and 0.89 (all ECs other than EC-u2). For the same compound, the “Drug response associated with the EC” value is given as “Resistant” (expression cluster EC-m3), “Resistant” (expression cluster EC-m4), “Sensitive” (expression cluster EC-u1) and “Sensitive” (expression cluster EC-u2). The “Mean viability in the EC” value is recorded as 0.95 (expression cluster EC-m3), 0.94 (expression cluster EC-m4), 0.85 (expression cluster EC-u1) and 0.73 (expression cluster EC-u2).

Take `COc1cc(Nc2ncc(F)c(Nc3ccc4c(n3)NC(=O)C(C)(C)O4)n2)cc(OC)c1OC` [tamatinib]: the “Mean viability in the other ECs” value was 1.03 (all ECs other than EC-i), 1.04 (all ECs other than EC-m3), 1.03 (all ECs other than EC-m4) and 1.06 (all ECs other than EC-u1). Also, the “Drug response associated with the EC” value is “Resistant” (expression cluster EC-i), “Resistant” (expression cluster EC-m3), “Resistant” (expression cluster EC-m4) and “Sensitive” (expression cluster EC-u1). For the same compound, the “Mean viability in the EC” value worked out at 1.07 (expression cluster EC-i), 1.09 (expression cluster EC-m3), 1.09 (expression cluster EC-m4) and 1.00 (expression cluster EC-u1).

`CN1CCN(CCOc2cc(OC3CCOCC3)c3c(Nc4c(Cl)ccc5c4OCO5)ncnc3c2)CC1` [saracatinib]: the “Mean viability in the other ECs” value (all ECs other than EC-i) is recorded as 1.07. Also, the “Mean viability in the EC” value (expression cluster EC-i) is given as 1.13.

In the case of `Cn1cnc2c(F)c(Nc3ccc(Br)cc3Cl)c(C(=O)NOCCO)cc21` [selumetinib], the “Mean viability in the other ECs” value was determined as 0.92 (all ECs other than EC-i); 0.93 (all ECs other than EC-m3); 0.92 (all ECs other than EC-m4); 0.94 (all ECs other than EC-u1); 0.94 (all ECs other than EC-u2). The “Drug response associated with the EC” value by setting is: (expression cluster EC-i) “Resistant”; (expression cluster EC-m3) “Resistant”; (expression cluster EC-m4) “Resistant”; (expression cluster EC-u1) “Sensitive”; (expression cluster EC-u2) “Sensitive”. Moreover, the “Mean viability in the EC” value (expression cluster EC-i) was 0.97; the “Mean viability in the EC” value (expression cluster EC-m3) was 0.97; the “Mean viability in the EC” value (expression cluster EC-m4) was 0.97; the “Mean viability in the EC” value (expression cluster EC-u1) stood at 0.91; the “Mean viability in the EC” value (expression cluster EC-u2) is listed as 0.79.

As for `Cn1cc(-c2[nH]c3cc(NC(=O)[C@H](N)C4CCCCC4)cc4c3c2C=NNC4=O)cn1` [PF 477736], the “Drug response associated with the EC” value by setting is: (expression cluster EC-m1) “Resistant”; (expression cluster EC-m3) “Resistant”; (expression cluster EC-m4) “Resistant”; (expression cluster EC-u1) “Sensitive”.

Regarding `NC(=O)Nc1cc(-c2cccc(F)c2)sc1C(=O)N[C@H]1CCCNC1` [AZD7762], the “Mean viability in the other ECs” value is, setting by setting: (all ECs other than EC-m3) 0.82; (all ECs other than EC-m4) 0.80; (all ECs other than EC-u1) 0.88; (all ECs other than EC-u2) 0.85. The “Drug response associated with the EC” value is “Resistant” (expression cluster EC-m3), “Resistant” (expression cluster EC-m4), “Sensitive” (expression cluster EC-u1) and “Sensitive” (expression cluster EC-u2). The “Mean viability in the EC” value (expression cluster EC-m3) is reported as 0.95, the “Mean viability in the EC” value (expression cluster EC-m4) worked out at 0.98, the “Mean viability in the EC” value (expression cluster EC-u1) turned out to be 0.74 and the “Mean viability in the EC” value (expression cluster EC-u2) is given as 0.51.

Consider `CC[C@H]1CN2CCc3cc(OC)c(OC)cc3[C@@H]2C[C@@H]1C[C@H]1NCCc2cc(O)c(OC)cc21` [cephaeline], for which the “Mean viability in the other ECs” value (all ECs other than EC-u2) amounted to 0.82. The “Mean viability in the EC” value (expression cluster EC-u2) is 0.72.

As for `CC(C)(C)c1ccc(S(=O)(=O)/C=C/C#N)cc1` [BAY 11-7085], the “Drug response associated with the EC” value is, setting by setting: (expression cluster EC-i) “Resistant”; (expression cluster EC-u1) “Sensitive”.

`Cc1c2oc3c(C)ccc(C(=O)N[C@@H]4C(=O)N[C@H](C(C)C)C(=O)N5CCC[C@H]5C(=O)N(C)CC(=O)N(C)[C@@H](C(C)C)C(=O)O[C@@H]4C)c3nc-2c(C(=O)N[C@@H]2C(=O)N[C@H](C(C)C)C(=O)N3CCC[C@H]3C(=O)N(C)CC(=O)N(C)[C@@H](C(C)C)C(=O)O[C@@H]2C)c(N)c1=O` [actinomycin D] (I: T[dV]P[Sar][NMeV] / II: T[dV]P[Sar][NMeV]; ester I:1-I:C, II:1-II:C; linker I:N-II:N via Actinocin(9to1)): the “Mean viability in the other ECs” value (all ECs other than EC-u1) is 0.27. Further, under “expression cluster EC-u1”, the “Drug response associated with the EC” value is recorded as “Resistant” and the “Mean viability in the EC” value is listed as 0.37.

For `Cl.NC(=O)c1cnc(N[C@@H]2CCCC[C@@H]2N)nc1Nc1cccc(-n2nccn2)c1` [PRT062607 HCl], the “Drug response associated with the EC” value was “Resistant” (expression cluster EC-i); “Resistant” (expression cluster EC-m3); “Resistant” (expression cluster EC-m4); “Sensitive” (expression cluster EC-u1); “Sensitive” (expression cluster EC-u2).

As to `C=CC(=O)Nc1cccc(Nc2nc(Nc3ccc(OCCOC)cc3)ncc2F)c1` [spebrutinib], the “Mean viability in the other ECs” value runs as follows: (all ECs other than EC-m4) 0.95; (all ECs other than EC-u1) 0.98; (all ECs other than EC-u2) 0.96. Besides, the “Mean viability in the EC” value by setting is: (expression cluster EC-m4) 1.01; (expression cluster EC-u1) 0.92; (expression cluster EC-u2) 0.88.

Consider `CC(C)c1cc(C(=O)N2Cc3ccc(CN4CCN(C)CC4)cc3C2)c(O)cc1O` [AT13387], for which the “Mean viability in the other ECs” value is 0.72 (all ECs other than EC-m1); 0.72 (all ECs other than EC-m3); 0.70 (all ECs other than EC-m4); 0.75 (all ECs other than EC-u1); 0.74 (all ECs other than EC-u2). In addition, the “Drug response associated with the EC” value was “Resistant” (expression cluster EC-m1); “Resistant” (expression cluster EC-m3); “Resistant” (expression cluster EC-m4); “Sensitive” (expression cluster EC-u1); “Sensitive” (expression cluster EC-u2). Besides, the “Mean viability in the EC” value is recorded as 0.82 (expression cluster EC-m1); 0.81 (expression cluster EC-m3); 0.81 (expression cluster EC-m4); 0.68 (expression cluster EC-u1); 0.50 (expression cluster EC-u2).

Take `CN1CCC(CNc2ccc3ncc(-c4cccc(OC(F)(F)F)c4)n3n2)CC1` [SGI-1776]: the “Mean viability in the other ECs” value (all ECs other than EC-m1) is recorded as 1.03 and the “Mean viability in the other ECs” value (all ECs other than EC-u1) is on record as 1.04. The “Drug response associated with the EC” value is “Resistant” (expression cluster EC-m1) and “Sensitive” (expression cluster EC-u1). The “Mean viability in the EC” value (expression cluster EC-m1) is 1.09 and the “Mean viability in the EC” value (expression cluster EC-u1) is on record as 1.01.

In the case of `CO[C@H]1C[C@@H]2CC[C@@H](C)[C@@](O)(O2)C(=O)C(=O)N2CCCC[C@H]2C(=O)O[C@H]([C@H](C)C[C@@H]2CC[C@@H](OCCO)[C@H](OC)C2)CC(=O)[C@H](C)/C=C(\C)[C@@H](O)[C@@H](OC)C(=O)[C@H](C)C[C@H](C)/C=C/C=C/C=C/1C` [everolimus], under “all ECs other than EC-u1”, the “Mean viability in the other ECs” value was found to be 0.95. Moreover, where the note is “expression cluster EC-u1”, the “Drug response associated with the EC” value is “Resistant” and the “Mean viability in the EC” value came out at 0.99.

As to `C=C(C)[C@H]1Cc2c(ccc3c2O[C@@H]2COc4cc(OC)c(OC)cc4[C@@H]2C3=O)O1` [rotenone], the “Mean viability in the other ECs” value is, setting by setting: (all ECs other than EC-i) 0.77; (all ECs other than EC-m4) 0.77; (all ECs other than EC-u2) 0.74. The “Drug response associated with the EC” value reads like this: (expression cluster EC-i) “Sensitive”; (expression cluster EC-m4) “Sensitive”; (expression cluster EC-u2) “Resistant”. Also, the “Mean viability in the EC” value is, setting by setting: (expression cluster EC-i) 0.63; (expression cluster EC-m4) 0.67; (expression cluster EC-u2) 0.92.
